From PubChem BioAssay AID330 (DTP/NCI, 2004)
Where “and” joins values, the source holds several entries; their conditions need not be identical. Equal entries are not always repeated. Inconclusive results and toxic doses are left out. The calls were made as follows: active = survival T/C of 150% or more; inactive = T/C below 125% in these data.

Tested on: P388 leukemia ip, CD2F1 mice, survival T/C
Assay: NCI In Vivo Anticancer Drug Screen. Data for tumor model P388 Leukemia (intraperitoneal) in CD2F1 (CDF1) mice
Conditions: endpoint: median survival time, higher = longer survival
How it was run: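 Mice carrying the transplanted tumor received test compound or vehicle. Survival was recorded in each group, and the value is the treated-group measurement divided by that of the vehicle-treated control group.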

[1] = dose: 100.0 mg/kg/injection, schedule: Q01DX001 (ip), vehicle: saline with Tween-80
[2] = dose: 200.0 mg/kg/injection, schedule: Q01DX001 (ip), vehicle: saline with Tween-80
[3] = dose: 400.0 mg/kg/injection, schedule: Q01DX001 (ip), vehicle: saline with Tween-80
[4] = dose: 50.0 mg/kg/injection, schedule: Q01DX009 (ip), vehicle: Klucel (hydroxypropylcellulose) (HPC)
[5] = dose: 100.0 mg/kg/injection, schedule: Q01DX009 (ip), vehicle: Klucel (hydroxypropylcellulose) (HPC)
[6] = dose: 200.0 mg/kg/injection, schedule: Q01DX009 (ip), vehicle: Klucel (hydroxypropylcellulose) (HPC)
[7] = dose: 100.0 mg/kg/injection, schedule: Q01DX009 (ip), vehicle: saline
[8] = dose: 200.0 mg/kg/injection, schedule: Q01DX009 (ip), vehicle: saline
[9] = dose: 400.0 mg/kg/injection, schedule: Q01DX009 (ip), vehicle: saline
[10] = dose: 50.0 mg/kg/injection, schedule: Q01DX009 (ip), vehicle: saline
[11] = dose: 50.0 mg/kg/injection, schedule: Q01DX009 (ip), vehicle: saline with Tween-80
[12] = dose: 100.0 mg/kg/injection, schedule: Q01DX009 (ip), vehicle: saline with Tween-80
[13] = dose: 60.0 mg/kg/injection, schedule: Q01DX005 (ip), vehicle: saline
[14] = dose: 120.0 mg/kg/injection, schedule: Q01DX005 (ip), vehicle: saline
[15] = dose: 240.0 mg/kg/injection, schedule: Q01DX005 (ip), vehicle: saline
[16] = dose: 60.0 mg/kg/injection, schedule: Q01DX005 (ip), vehicle: saline with Tween-80
[17] = dose: 120.0 mg/kg/injection, schedule: Q01DX005 (ip), vehicle: saline with Tween-80
[18] = dose: 240.0 mg/kg/injection, schedule: Q01DX005 (ip), vehicle: saline with Tween-80
[19] = dose: 6.25 mg/kg/injection, schedule: Q01DX009 (ip), vehicle: Klucel (hydroxypropylcellulose) (HPC)
[20] = dose: 12.5 mg/kg/injection, schedule: Q01DX009 (ip), vehicle: Klucel (hydroxypropylcellulose) (HPC)
[21] = dose: 25.0 mg/kg/injection, schedule: Q01DX009 (ip), vehicle: Klucel (hydroxypropylcellulose) (HPC)

Measured: T/C

COC1(OC)C2(Cl)C(Cl)=C(Cl)C1(Cl)C1C3CC=CC(CC12)S3 (stereo not drawn)
inactive: dose: 100.0 mg/kg/injection, schedule: Q04DX002 (ip), vehicle: saline with Tween-80 102 % of control | dose: 200.0 mg/kg/injection, schedule: Q04DX002 (ip), vehicle: saline with Tween-80 100 % of control | dose: 400.0 mg/kg/injection, schedule: Q04DX002 (ip), vehicle: saline with Tween-80 99 % of control

C=C[C@H]1[C@H](OC2OC(CO)C(O)C(O)C2O)OC=C2C(=O)N3CCc4c([nH]c5ccccc45)C3C[C@H]21 (stereo partly drawn)
inactive: [1] 107 % of control | [2] 94 % of control | [3] 89 % of control

CC(=O)c1cccc(NC(=O)C2C(=O)C(=O)N(c3cccc(C(C)=O)c3)C2=O)c1 (stereo not drawn)
inactive: [4] 91 % of control | [5] 104 % of control | [6] 101 % of control

COc1ccc(N2C(=O)CCC2=O)cc1
inactive: [1] 109 % of control | [2] 100 % of control | [3] 95 % of control

O=c1[nH]cc(B(O)O)c(=O)[nH]1
inactive: [7] 106 % of control | [8] 113 % of control | [9] 113 % of control

CC(C)(C)c1ccc(S(=O)(=O)O)cc1
inactive: [10] 103 % of control | [7] 100 % of control | [8] 86 % of control

CCN(CC)CC(O)CNc1ncnc(N)c1C(=C(C)C)c1ccc(Cl)cc1 (stereo not drawn)
inactive: dose: 25.0 mg/kg/injection, schedule: Q01DX009 (ip), vehicle: saline with Tween-80 100 % of control | [11] 100 % of control | [12] 90 % of control

Cc1ccc(S(=O)(=O)C(CC(=O)CCN2CCCCC2)c2ccccc2)cc1 (stereo not drawn)
inactive: [10] 102 % of control | [7] 96 % of control

CCCCCCC(O)C/C=C\CCCCCCCC(=O)O (stereo not drawn)
inactive: [4] 107 % of control | [5] 107 % of control | [6] 102 % of control | dose: 400.0 mg/kg/injection, schedule: Q01DX009 (ip), vehicle: Klucel (hydroxypropylcellulose) (HPC) 95 % of control

O=C1CCC(=O)N1CN1CCCCC1
inactive: [13] 93 % of control | [14] 113 % of control | [15] 118 % of control

CCCCCCCCCCCCCCCCc1c(C)nc(N(C)C)oc1=O
inactive: [16] 103 % of control | [17] 97 % of control | [18] 98 % of control and 100 % of control

O=C1CCC(c2n[nH]c(=S)n2-c2ccccc2)N1 (stereo not drawn)
inactive: [16] 100 % of control | [17] 97 % of control | [18] 94 % of control

CC1(C)CC(=NNC(N)=S)CC(C)(C)N1
inactive: [10] 94 % of control | [7] 97 % of control | [8] 99 % of control

NCCC(=O)NC(Cc1cnc[nH]1)C(=O)O (stereo not drawn)
inactive: [10] 104 % of control | [7] 104 % of control | [8] 99 % of control | [9] 98 % of control

CN1CCc2[nH]nc(-c3n[nH]c4c3CN(C)CC4)c2C1
inactive: [13] 100 % of control | [14] 86 % of control | [15] 93 % of control

COc1ccc(C(c2cc(C(C)(C)C)cc(C(C)(C)C)c2O)N2CCCCC2)cc1 (stereo not drawn)
inactive: dose: 50.0 mg/kg/injection, schedule: Q01DX005 (ip), vehicle: distilled water + alcohol 97 % of control | dose: 100.0 mg/kg/injection, schedule: Q01DX005 (ip), vehicle: distilled water + alcohol 100 % of control | dose: 200.0 mg/kg/injection, schedule: Q01DX005 (ip), vehicle: distilled water + alcohol 99 % of control

[O-][n+]1nc(Cl)nc2ccccc21
inactive: dose: 10.0 mg/kg/injection, schedule: Q01DX009 (ip), vehicle: Klucel (hydroxypropylcellulose) (HPC) 105 % of control | dose: 20.0 mg/kg/injection, schedule: Q01DX009 (ip), vehicle: Klucel (hydroxypropylcellulose) (HPC) 107 % of control

NC(=O)c1c[n+]([O-])ccc1[N+](=O)[O-]
inactive: [19] 108 % of control | [20] 117 % of control | [21] 117 % of control | [4] 119 % of control

Cc1cc(=O)oc2ccc3c(=O)ccoc3c12
inactive: [16] 95 % of control | [17] 96 % of control | [18] 97 % of control

O=C1CN(C2CC2N2CC(=O)NC(=O)C2)CC(=O)N1 (stereo not drawn)
inactive: dose: 100.0 mg/kg/injection, schedule: Q04DX003 (ip), vehicle: saline with Tween-80 97 % of control | dose: 200.0 mg/kg/injection, schedule: Q04DX003 (ip), vehicle: saline with Tween-80 100 % of control | dose: 400.0 mg/kg/injection, schedule: Q04DX003 (ip), vehicle: saline with Tween-80 100 % of control

O=C1NC(=O)C(CCC[n+]2ccccc2)(c2ccccc2)C(=O)N1
inactive: [11] 107 % of control | [12] 107 % of control

CC(C)=CC[P+](CCCC[P+](CC=C(C)C)(c1ccccc1)c1ccccc1)(c1ccccc1)c1ccccc1
inactive: dose: 1.56 mg/kg/injection, schedule: Q04DX003 (ip), vehicle: saline 100 % of control | dose: 3.12 mg/kg/injection, schedule: Q04DX003 (ip), vehicle: saline 101 % of control

Cc1ccc(NC(=S)SCc2ccco2)cc1Cl
inactive: dose: 50.0 mg/kg/injection, schedule: Q01DX009 (ip), vehicle: suspension in saline 100 % of control | dose: 100.0 mg/kg/injection, schedule: Q01DX009 (ip), vehicle: suspension in saline 103 % of control | dose: 200.0 mg/kg/injection, schedule: Q01DX009 (ip), vehicle: suspension in saline 109 % of control

O=[N+]([O-])c1ccc(C2=Nc3ccccc3N=C(c3ccccc3O)C2)cc1
inactive: dose: 0.93 mg/kg/injection, schedule: Q01DX005 (ip), vehicle: saline with Tween-80 100 % of control | dose: 1.87 mg/kg/injection, schedule: Q01DX005 (ip), vehicle: saline with Tween-80 113 % of control | dose: 3.75 mg/kg/injection, schedule: Q01DX005 (ip), vehicle: saline with Tween-80 91 % of control and 94 % of control | dose: 15.0 mg/kg/injection, schedule: Q01DX005 (ip), vehicle: saline with Tween-80 91 % of control | [18] 90 % of control

N#C/C(=C/c1cccs1)c1cccs1
inactive: [16] 100 % of control | [17] 106 % of control | [18] 109 % of control

CC(C)c1cc(C2C(=O)c3ccccc3C2=O)cc(C(C)C)c1O
inactive: dose: 100.0 mg/kg/injection, schedule: Q04DX002 (ip), vehicle: saline 106 % of control | dose: 200.0 mg/kg/injection, schedule: Q04DX002 (ip), vehicle: saline 114 % of control | dose: 400.0 mg/kg/injection, schedule: Q04DX002 (ip), vehicle: saline 108 % of control

CCN(CC)C(C)C(=O)c1ccc2cc(Br)c3ccccc3c2c1 (stereo not drawn)
inactive: dose: 50.0 mg/kg/injection, schedule: Q01DX005 (ip), vehicle: saline 109 % of control | dose: 100.0 mg/kg/injection, schedule: Q01DX005 (ip), vehicle: saline 113 % of control

O=c1ccs[nH]1
inactive: dose: 3.12 mg/kg/injection, schedule: Q01DX009 (ip), vehicle: Klucel (hydroxypropylcellulose) (HPC) 100 % of control | [19] 102 % of control and 104 % of control and 117 % of control | [20] 102 % of control and 114 % of control and 124 % of control | [21] 100 % of control and 90 % of control

CCOC(=O)c1cc(NC(C)=O)cn1C
inactive: [11] 102 % of control | [12] 104 % of control | dose: 200.0 mg/kg/injection, schedule: Q01DX009 (ip), vehicle: saline with Tween-80 103 % of control
